Results taken from ChEMBL document CHEMBL5465560, “Selectivity Literature for EUbOPEN Chemogenomic Library” (2024).

Assays:
[1] = target: Mitogen-activated protein kinase kinase kinase 10 (Homo sapiens) (UniProt Q02779); experiment: Selectivity interaction (Ambit KINOMEscan and KiNATiv profiling in Jurkat cells) EUB0000090b MAP3K10; format: cell-based; conditions: at 1 µM
[2] = target: T1, 3-phosphoinositide-dependent protein kinase 1 (Homo sapiens) (UniProt O15530); experiment: Selectivity interaction (Ambit KINOMEscan and KiNATiv profiling in Jurkat cells) EUB0000090b PDPK1; format: cell-based; conditions: at 1 µM
T1 sequence (whole entry): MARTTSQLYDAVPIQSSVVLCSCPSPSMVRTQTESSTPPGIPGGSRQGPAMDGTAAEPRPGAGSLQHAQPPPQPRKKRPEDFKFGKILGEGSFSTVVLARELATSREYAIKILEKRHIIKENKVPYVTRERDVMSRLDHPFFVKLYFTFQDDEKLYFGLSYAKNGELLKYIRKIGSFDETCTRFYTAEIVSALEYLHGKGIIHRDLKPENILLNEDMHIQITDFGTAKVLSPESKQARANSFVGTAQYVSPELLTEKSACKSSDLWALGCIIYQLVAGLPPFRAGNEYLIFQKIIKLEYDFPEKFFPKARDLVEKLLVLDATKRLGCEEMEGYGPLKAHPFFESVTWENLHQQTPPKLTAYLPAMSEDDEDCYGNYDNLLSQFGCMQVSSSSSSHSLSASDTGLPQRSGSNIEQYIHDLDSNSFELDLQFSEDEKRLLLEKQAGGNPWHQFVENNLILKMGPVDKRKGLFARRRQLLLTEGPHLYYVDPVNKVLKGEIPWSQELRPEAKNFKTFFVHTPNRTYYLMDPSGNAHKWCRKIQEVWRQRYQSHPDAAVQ

[3] = target: Type-2 angiotensin II receptor (Homo sapiens) (UniProt P50052); experiment: Selectivity interaction (Eurofins CEREP Diversity Profile (receptors and ion channels)) EUB0000279b AGTR2; conditions: at 10 µM
[4] = target: Serine/threonine-protein kinase N1 (Homo sapiens, UniProt Q16512); experiment: Selectivity interaction (KinomeScan (DiscoverX)) EUB0000595a PKN1; conditions: at 10 µM
[5] = target: Cyclin-dependent kinase-like 1 (Homo sapiens) (UniProt Q00532); experiment: Selectivity interaction (KinomeScan (DiscoverX)) EUB0000229b CDKL1; conditions: at 10 µM
Ephrin type-A receptor 4 = Ephrin type-A receptor 4 (Homo sapiens, UniProt P54764); experiment: Selectivity interaction (KinomeScan (DiscoverX)) EUB0000229b EPHA4; conditions: at 10 µM
[6] = target: Macrophage-stimulating protein receptor (Homo sapiens, UniProt Q04912); experiment: Selectivity interaction (KinomeScan (DiscoverX)) EUB0000229b MST1R; conditions: at 10 µM
[7] = target: T2, Serine/threonine-protein kinase ULK2 (Homo sapiens) (UniProt Q8IYT8); experiment: Selectivity interaction (KinomeScan (DiscoverX)) EUB0001079a ULK2; conditions: at 1 µM
T2 sequence (whole entry): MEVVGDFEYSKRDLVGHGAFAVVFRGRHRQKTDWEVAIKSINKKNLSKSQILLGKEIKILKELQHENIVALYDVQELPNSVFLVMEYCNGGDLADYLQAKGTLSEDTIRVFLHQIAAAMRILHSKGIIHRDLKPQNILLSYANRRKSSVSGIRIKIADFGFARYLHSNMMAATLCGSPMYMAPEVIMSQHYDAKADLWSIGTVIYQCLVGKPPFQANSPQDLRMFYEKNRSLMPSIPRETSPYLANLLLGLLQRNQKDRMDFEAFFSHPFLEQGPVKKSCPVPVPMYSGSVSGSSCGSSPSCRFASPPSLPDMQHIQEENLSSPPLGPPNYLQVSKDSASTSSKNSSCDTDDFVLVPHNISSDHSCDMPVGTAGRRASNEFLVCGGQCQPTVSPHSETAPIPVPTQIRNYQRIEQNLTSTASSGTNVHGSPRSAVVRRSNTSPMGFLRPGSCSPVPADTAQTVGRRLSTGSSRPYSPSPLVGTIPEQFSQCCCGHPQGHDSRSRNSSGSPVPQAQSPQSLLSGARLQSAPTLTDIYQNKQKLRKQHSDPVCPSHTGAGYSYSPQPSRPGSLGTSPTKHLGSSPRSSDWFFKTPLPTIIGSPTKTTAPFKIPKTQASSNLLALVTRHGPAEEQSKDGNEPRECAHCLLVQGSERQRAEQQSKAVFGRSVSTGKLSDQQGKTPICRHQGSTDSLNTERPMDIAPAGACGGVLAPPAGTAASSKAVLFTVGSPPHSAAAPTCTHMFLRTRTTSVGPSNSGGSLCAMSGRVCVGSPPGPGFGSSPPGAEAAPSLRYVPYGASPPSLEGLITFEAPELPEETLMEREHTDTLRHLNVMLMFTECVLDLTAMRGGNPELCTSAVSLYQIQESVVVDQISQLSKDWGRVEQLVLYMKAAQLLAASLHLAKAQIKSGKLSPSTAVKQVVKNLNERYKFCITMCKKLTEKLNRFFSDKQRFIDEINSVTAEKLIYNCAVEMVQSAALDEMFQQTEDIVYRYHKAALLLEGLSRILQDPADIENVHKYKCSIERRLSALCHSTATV

[8] = target: Receptor tyrosine-protein kinase erbB-2 (Homo sapiens, UniProt P04626); experiment: Selectivity interaction (ProQinase) EUB0000171b ERBB2
[9] = target: Phosphatidylinositol 4-phosphate 3-kinase C2 domain-containing subunit alpha (Homo sapiens) (UniProt O00443); experiment: Selectivity interaction (ProQinase) EUB0000171b PIK3C2A
[10] = target: Homeodomain-interacting protein kinase 2 (Homo sapiens, UniProt Q9H2X6); experiment: Selectivity interaction (KinomeScan (DiscoverX)) EUB0000655a HIPK2; conditions: at 10 µM
[11] = target: Putative phosphatidylinositol 4-kinase alpha-like protein P2 (Homo sapiens) (UniProt A4QPH2); experiment: Selectivity interaction (ActivX KiNativ screen (ex vivo kinase selectivity in human PBMCs)) EUB0001619a PI4KAP2; format: cell-based; conditions: PBMC, at 1 µM
[12] = target: SRSF protein kinase 2 (Homo sapiens) (UniProt P78362); experiment: Selectivity interaction (KinomeScan (DiscoverX)) EUB0001619a SRPK2; conditions: at 1 µM
[13] = Selectivity interaction (KinomeScan (DiscoverX)) EUB0000666a CDK2H; conditions: at 10 µM
KCNE1 = KCNE1 (Homo sapiens, UniProt P15382); experiment: Selectivity interaction (Panel of kinases, GPCRs, ion channels and transporters (enzymatic assay)) EUB0000223bCl KCNE1

Receptor tyrosine-protein kinase erbB-2, sequence (P04626 whole entry, the tested form may be a part): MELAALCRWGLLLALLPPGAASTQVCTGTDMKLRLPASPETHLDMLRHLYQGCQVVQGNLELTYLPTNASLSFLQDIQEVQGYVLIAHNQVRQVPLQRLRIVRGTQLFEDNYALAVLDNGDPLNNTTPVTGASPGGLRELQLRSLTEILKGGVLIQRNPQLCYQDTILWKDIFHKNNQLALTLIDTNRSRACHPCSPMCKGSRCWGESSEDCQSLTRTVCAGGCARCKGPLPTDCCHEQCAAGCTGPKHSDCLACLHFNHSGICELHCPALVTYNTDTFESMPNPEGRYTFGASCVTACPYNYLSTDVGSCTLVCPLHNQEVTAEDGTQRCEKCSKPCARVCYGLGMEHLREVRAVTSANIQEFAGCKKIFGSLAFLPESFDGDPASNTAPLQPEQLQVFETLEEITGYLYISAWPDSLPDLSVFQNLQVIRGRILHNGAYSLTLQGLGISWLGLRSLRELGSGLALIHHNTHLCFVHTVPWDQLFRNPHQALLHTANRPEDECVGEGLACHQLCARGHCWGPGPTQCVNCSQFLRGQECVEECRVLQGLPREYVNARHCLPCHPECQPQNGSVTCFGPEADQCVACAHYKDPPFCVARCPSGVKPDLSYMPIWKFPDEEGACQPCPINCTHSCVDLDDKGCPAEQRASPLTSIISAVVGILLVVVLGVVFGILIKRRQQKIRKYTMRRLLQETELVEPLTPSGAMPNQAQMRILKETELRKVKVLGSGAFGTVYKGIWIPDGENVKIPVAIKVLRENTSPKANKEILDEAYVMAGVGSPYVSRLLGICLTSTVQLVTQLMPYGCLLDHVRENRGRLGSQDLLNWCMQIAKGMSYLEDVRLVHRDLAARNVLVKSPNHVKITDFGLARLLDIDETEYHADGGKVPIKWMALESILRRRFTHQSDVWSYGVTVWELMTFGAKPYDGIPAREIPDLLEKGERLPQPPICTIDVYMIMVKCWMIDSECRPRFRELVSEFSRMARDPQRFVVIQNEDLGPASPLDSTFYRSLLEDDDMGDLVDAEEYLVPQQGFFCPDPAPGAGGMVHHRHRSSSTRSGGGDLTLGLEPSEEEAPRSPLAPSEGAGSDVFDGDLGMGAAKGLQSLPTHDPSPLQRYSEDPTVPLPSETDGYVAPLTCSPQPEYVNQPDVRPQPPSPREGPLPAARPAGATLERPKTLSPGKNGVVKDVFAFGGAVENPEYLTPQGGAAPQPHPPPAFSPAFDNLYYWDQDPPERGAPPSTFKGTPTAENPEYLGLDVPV
Phosphatidylinositol 4-phosphate 3-kinase C2 domain-containing subunit alpha (Homo sapiens), sequence (O00443 whole entry, the tested form may be a part): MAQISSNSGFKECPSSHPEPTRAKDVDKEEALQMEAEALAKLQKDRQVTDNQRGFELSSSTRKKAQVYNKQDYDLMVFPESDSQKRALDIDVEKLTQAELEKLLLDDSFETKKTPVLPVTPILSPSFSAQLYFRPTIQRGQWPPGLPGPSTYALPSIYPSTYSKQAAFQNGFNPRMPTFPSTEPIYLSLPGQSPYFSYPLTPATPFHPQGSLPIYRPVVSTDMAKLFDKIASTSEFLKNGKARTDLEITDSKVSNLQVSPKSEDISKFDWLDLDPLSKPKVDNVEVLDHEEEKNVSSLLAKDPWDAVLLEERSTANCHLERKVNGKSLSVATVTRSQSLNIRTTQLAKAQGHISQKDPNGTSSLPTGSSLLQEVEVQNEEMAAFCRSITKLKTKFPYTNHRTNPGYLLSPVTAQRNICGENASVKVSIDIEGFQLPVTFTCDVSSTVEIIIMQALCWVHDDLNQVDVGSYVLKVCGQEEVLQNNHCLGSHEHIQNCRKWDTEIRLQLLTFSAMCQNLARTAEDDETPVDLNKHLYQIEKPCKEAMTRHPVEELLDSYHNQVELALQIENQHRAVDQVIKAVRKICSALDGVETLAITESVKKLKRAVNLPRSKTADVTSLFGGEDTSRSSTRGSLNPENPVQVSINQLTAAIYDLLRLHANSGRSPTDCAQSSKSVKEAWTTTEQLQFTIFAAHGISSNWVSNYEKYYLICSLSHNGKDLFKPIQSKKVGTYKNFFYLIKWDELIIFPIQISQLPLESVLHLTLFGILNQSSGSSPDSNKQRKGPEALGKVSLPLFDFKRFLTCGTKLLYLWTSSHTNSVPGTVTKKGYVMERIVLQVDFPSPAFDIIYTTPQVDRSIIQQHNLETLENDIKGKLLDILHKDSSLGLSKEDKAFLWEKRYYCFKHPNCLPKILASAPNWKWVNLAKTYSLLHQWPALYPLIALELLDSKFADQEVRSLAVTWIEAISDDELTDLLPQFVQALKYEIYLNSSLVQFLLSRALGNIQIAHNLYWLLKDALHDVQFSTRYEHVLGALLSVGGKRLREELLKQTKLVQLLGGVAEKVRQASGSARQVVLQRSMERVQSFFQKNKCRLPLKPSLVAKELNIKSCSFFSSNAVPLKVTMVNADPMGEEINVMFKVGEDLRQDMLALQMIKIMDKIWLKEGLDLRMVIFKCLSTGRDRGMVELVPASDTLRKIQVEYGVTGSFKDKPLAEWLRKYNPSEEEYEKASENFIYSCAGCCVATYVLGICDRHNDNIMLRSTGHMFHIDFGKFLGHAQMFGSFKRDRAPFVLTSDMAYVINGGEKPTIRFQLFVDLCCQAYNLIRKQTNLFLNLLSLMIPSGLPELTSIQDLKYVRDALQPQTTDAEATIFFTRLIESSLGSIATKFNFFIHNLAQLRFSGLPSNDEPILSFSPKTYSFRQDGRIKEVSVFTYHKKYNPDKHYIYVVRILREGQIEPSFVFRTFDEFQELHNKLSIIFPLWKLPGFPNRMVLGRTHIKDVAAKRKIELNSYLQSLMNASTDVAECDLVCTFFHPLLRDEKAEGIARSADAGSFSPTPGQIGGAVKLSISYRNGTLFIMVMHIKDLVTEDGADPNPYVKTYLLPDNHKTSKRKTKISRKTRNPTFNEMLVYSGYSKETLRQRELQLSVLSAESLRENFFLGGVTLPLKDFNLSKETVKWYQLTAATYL
Macrophage-stimulating protein receptor, sequence (Q04912 25-304 limits assumed): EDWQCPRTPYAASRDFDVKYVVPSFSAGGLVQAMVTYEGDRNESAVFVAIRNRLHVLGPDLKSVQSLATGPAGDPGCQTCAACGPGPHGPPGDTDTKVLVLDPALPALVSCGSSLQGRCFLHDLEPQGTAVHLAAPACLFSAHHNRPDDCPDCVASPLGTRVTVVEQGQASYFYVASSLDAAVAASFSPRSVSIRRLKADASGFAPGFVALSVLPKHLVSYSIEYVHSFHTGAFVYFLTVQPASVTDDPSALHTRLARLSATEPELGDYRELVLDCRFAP
Macrophage-stimulating protein receptor, sequence (Q04912 310-1400 limits assumed): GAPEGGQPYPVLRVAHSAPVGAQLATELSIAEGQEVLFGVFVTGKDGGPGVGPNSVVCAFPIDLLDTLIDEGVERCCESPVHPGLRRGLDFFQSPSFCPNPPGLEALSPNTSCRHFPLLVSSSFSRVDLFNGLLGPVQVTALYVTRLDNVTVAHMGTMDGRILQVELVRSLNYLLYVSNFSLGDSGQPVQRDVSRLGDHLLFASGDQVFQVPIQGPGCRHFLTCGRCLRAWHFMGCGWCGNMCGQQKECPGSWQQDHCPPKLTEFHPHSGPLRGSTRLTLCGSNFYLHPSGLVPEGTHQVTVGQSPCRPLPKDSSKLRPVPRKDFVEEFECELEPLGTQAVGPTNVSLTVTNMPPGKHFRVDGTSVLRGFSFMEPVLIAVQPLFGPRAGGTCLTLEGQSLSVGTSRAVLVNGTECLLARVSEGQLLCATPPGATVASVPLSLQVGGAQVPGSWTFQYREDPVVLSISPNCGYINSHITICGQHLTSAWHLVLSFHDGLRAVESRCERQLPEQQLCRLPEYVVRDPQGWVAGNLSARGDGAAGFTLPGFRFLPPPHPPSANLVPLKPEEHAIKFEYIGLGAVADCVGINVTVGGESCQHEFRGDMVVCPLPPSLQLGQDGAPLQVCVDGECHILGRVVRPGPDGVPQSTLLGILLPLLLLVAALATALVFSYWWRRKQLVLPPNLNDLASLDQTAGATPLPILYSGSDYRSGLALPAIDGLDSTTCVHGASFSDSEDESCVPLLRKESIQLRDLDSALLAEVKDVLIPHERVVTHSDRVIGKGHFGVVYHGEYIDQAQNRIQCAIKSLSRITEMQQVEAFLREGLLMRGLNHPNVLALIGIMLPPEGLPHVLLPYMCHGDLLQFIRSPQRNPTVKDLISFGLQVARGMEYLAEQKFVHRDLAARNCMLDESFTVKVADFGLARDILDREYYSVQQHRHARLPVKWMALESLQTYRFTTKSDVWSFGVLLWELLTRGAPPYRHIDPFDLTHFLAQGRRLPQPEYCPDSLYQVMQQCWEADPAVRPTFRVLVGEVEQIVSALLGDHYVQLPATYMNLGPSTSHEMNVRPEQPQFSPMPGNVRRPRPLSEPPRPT
Cyclin-dependent kinase-like 1 (Homo sapiens), sequence (Q00532 whole entry): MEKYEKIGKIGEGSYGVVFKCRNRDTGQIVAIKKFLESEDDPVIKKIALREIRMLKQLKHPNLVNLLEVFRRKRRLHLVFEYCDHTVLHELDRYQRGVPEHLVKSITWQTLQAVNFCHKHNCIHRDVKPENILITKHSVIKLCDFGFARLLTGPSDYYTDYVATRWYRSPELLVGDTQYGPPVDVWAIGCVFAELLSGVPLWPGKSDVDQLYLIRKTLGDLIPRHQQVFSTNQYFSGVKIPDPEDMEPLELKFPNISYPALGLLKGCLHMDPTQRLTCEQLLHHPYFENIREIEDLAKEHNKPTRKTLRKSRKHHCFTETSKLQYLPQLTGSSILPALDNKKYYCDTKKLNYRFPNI
Type-2 angiotensin II receptor (Homo sapiens), sequence (P50052 whole entry): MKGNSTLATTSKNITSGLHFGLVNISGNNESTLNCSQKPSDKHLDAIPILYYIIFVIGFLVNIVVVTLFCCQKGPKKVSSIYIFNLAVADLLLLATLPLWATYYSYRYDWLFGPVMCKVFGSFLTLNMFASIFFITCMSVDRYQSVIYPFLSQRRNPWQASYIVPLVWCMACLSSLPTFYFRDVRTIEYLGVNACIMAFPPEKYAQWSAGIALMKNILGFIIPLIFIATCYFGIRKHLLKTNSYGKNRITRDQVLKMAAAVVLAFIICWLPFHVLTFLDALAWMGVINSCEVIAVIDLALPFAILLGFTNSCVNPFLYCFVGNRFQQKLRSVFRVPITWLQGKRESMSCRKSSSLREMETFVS

Compound: CN(C)C/C=C/C(=O)Nc1ccc(C(=O)N2CCCC(Nc3ncc(Cl)c(-c4c[nH]c5ccccc45)n3)C2)cc1 (configuration not stated)
- % of control [1]: 100%
- % of control [2]: 99%

Compound: CC(=O)c1cc(-c2ccccc2OCC2CC2)c2ncccn12
- % of control [3]: 106%

Compound: COCC(=O)NC/C=C/c1ccc2ncnc(Nc3ccc(Oc4ccc(C)nc4)c(C)c3)c2c1 [CP-724714]
- % of control [4]: 100%

Compound: COc1cc(N(C)c2ccnc3ccc(C(F)(F)F)cc23)cc(OC)c1OC
- % binding [5]: 70%
- % binding (Ephrin type-A receptor 4): 100%
- % binding [6]: 82%

Compound: Nc1cnc(N2CCc3cc(S(=O)(=O)Nc4c(F)cc(Cl)cc4F)cc(N4CCCC4=O)c32)nc1 [TP-020n]
- % of control [7]: 100%

Compound: C=CC(=O)Nc1cccc(C(=O)Nc2ccc(Nc3cc(-c4[nH]c(SC)nc4C)ccn3)cc2)c1
- % of control ([8]; at 1 µM): 92%
- % of control ([8]; at 5 µM): 94%
- % of control ([9]; at 1 µM): 189%
- % of control ([9]; at 5 µM): 183%

Compound: CN(C)CCOc1ccc(-c2nc(-c3ccncc3)c(-c3ccc4c(c3)CC/C4=N\O)[nH]2)cc1
- % of control [10]: 19%

Compound: N#Cc1cccc(-c2c[nH]c3ncnc(N4CCOCC4)c23)c1
- % of inhibition [11]: 6%
- % of control [12]: 70%

Compound: O=C(NOC[C@H](O)CO)c1ccc(F)c(F)c1Nc1ccc(I)cc1F
- % of control [13]: 100%

Compound: COc1cc(C(=O)N2CC[C@@H](O)[C@@H](N)C2)cc2nc(-c3cc4ccccc4n3CC3CC3)n(C)c12
- XC50 (KCNE1): > 25.1 µM
